Laboratory results taken from article PMC5784158, “New 2-Aryl-9-methyl-β-carbolinium salts as Potential Acetylcholinesterase Inhibitor agents: Synthesis, Bioactivity and Structure–Activity Relationship” (Scientific Reports, 2018).
Read-outs that look alike come from different tables or passages of the source. Marks after values point to notes of the source that are not given here.

Assays:
AChE [1] = molecular target: T1, AChE (Musca domestica, UniProt Q7YWJ9); test: Kinetic analysis of AChE inhibition (substrate ATCh); type: biochemical, fly; settings: for Ki: substrate ATCh, read-out: inhibition constant Ki for AChE; for mechanism of AChE inhibition: with respect to substrate ATCh
Source text: (A and B) The reciprocals of the initial reaction rates and substrate concentrations are plotted. (C and D) The slope values of the lines from graph A or C are plotted versus the inhibitor concentration, affording an equation of linear regression.

BuChE [2] = settings: read-out: IC50 ± S.D BuChE; cited from earlier work
AChE [3] = molecular target: T1, AChE; test: biochemical; type: biochemical, fly; settings: for IC50: read-out: IC50 ± S.D AChE
Protocol: AChE (E.C. 3.1.1.7) (BR, 200 u/mg) from fly’s head and BuChE (E.C. 3.1.1.8) (BR, 20 u/mg) from horse serum were purchased from Shanghai Yuanye biological technology Co. Ltd (Shanghai, China).
(§1) The inhibitory activities of the compounds against AChE were evaluated according to Ellman’s coupled enzyme assay[47] with the following modifications. 90 μL potassium phosphate buffer (PBS, 0.1 M, pH 7.4), 10 μL the solution of 2 units/mL AChE in 0.1 M PBS (pH 7.4) and 10 μL the solution of 200 μM test compounds in the mixed solution of methanol-PBS (pH 7.4) (1:9, V/V) were added to each well of a 96-well plate. The methanol-PBS solution was used as a blank control. After incubation at room temperature for 10 min, 60 μL the solution of 10 mM DTNB in PBS was added into each the well. The plate was placed on crushed ices and cooled for 20 min. To each the well was added 30 μL the solution of 7.5 mM ATCh in PBS (pH 7.4). […] Each test was performed in triplicate. Inhibition rates of the enzyme were calculated relative to a control sample. The inhibitory activities against BuChE were measured as described above for AChE, using 0.7 unit/mL BuChE and 4 mM BuTCh instead of AChE and ATCh as the enzyme and substrate, respectively.
(§2) The probit value of the average inhibition rate for each test concentration and the corresponding lg[concentration] were used to establish enzyme inhibition regression equation by the linear least-square fitting method. IC50 values were calculated from the equations.

BuChE [4] = molecular target: T2, BuChE (Equus caballus, UniProt P81908); test: BuChE inhibition, Ellman's method; type: biochemical, horse; settings: read-out: IC50 ± S.D BuChE
T2 construct: BuChE (E.C. 3.1.1.8) (BR, 20 u/mg) from horse serum; purchased Shanghai Yuanye biological technology Co. Ltd (Shanghai, China); host or cells: horse serum (tissue-derived)
Source text: There is increasing recognition that BuChE may play an important role in cholinergic transmission[15],[16]. While the level of AChE decreases dramatically in the advanced stage of AD, BuChE increases in brain regions involved in cognitive functions[17],[18]. At this point, BuChE is able to compensate for AChE loss by hydrolyzing ACh. These observations lead one to believe that inhibition of both AChE and BuChE may contribute to improvement of current symptomatic treatments of AD. Therefore, the compounds in Table 2 were also evaluated for BuChE inhibition activity by means of Ellman’s method. […] AChE (E.C. 3.1.1.7) (BR, 200 u/mg) from fly’s head and BuChE (E.C. 3.1.1.8) (BR, 20 u/mg) from horse serum were purchased from Shanghai Yuanye biological technology Co. Ltd (Shanghai, China).
as §1, §2

[5] = tested on: primary cultured porcine fetal kidney cells; test: In vitro cytotoxicity, MTT assay; settings: read-out: Cytotoxicity IC50, primary cultured porcine fetal kidney cells; 48 h
Protocol: (§3) In vitro cytotoxicity assay
(§4) Cytotoxic activity of the compounds was determined using MTT assay1. Primary cultured goat fetal fibroblasts and primary cultured porcine fetal kidney cells were cultured in the DMEM medium (high glucose) and a mixture culture medium consisting of 50% DMEM (high glucose) and 50% DMEM/F12, respectively, supplemented with 10% fetal bovine serum, penicillin (100 U/mL) and streptomycin (100 μg/mL) at 37 ℃ in 5% CO2. The cells at […]
(§5) After removal of the medium, the cells in each well were treated with 200 μL solution containing different concentrations of the tested compounds and vehicle controls which only received an equivalent amount of DMSO in quintuplicate for 48 h at 37 ℃. Thirty microliter of MTT solution (5 mg/mL in PBS) was added to each well with […] for an additional 4 h. After removing the supernatant, 150 μL of DMSO was added to completely dissolve the formazan crystals that had formed in viable cells in the wells. Finally, the plates were […]
(§6) containing the same media as other test wells but no cells were used as blank controls. All the doses were tested in quintuplicate and the experiments were repeated at least three times. The inhibition rates (IRs) were calculated.
(§7) (GraphPad Software Inc., San Diego, CA, USA).

[6] = tested on: mouse neuroblastoma N2a cells; test: In vitro cytotoxicity, MTT assay; settings: read-out: Cytotoxicity IC50, mouse neuroblastoma N2a cells; 48 h
AChE [7] = settings: cited from earlier work
[8] = In vitro cytotoxicity, MTT assay; settings: pig, primary cultured porcine fetal kidney cells
Protocol: as §3, §4, §5, §6, §7

[9] = In vitro cytotoxicity, MTT assay; settings: mouse, mouse neuroblastoma N2a cells
[10] = test concentration of the compound 10 μM

T1 sequence (Q7YWJ9 81-659): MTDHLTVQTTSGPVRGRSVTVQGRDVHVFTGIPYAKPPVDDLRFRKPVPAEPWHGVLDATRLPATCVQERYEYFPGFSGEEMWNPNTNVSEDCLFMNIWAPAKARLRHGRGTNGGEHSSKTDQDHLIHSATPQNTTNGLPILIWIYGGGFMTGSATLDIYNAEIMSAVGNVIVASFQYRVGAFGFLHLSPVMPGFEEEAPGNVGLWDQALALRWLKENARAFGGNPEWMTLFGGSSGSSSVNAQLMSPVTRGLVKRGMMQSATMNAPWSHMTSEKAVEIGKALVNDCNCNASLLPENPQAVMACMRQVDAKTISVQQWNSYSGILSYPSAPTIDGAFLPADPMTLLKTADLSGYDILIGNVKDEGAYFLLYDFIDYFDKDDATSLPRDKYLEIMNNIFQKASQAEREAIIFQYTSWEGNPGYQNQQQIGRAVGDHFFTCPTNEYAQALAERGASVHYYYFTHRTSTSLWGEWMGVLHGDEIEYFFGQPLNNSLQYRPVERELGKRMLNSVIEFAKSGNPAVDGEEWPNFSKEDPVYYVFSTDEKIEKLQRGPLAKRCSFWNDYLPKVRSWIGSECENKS
T2 sequence (P81908 whole entry): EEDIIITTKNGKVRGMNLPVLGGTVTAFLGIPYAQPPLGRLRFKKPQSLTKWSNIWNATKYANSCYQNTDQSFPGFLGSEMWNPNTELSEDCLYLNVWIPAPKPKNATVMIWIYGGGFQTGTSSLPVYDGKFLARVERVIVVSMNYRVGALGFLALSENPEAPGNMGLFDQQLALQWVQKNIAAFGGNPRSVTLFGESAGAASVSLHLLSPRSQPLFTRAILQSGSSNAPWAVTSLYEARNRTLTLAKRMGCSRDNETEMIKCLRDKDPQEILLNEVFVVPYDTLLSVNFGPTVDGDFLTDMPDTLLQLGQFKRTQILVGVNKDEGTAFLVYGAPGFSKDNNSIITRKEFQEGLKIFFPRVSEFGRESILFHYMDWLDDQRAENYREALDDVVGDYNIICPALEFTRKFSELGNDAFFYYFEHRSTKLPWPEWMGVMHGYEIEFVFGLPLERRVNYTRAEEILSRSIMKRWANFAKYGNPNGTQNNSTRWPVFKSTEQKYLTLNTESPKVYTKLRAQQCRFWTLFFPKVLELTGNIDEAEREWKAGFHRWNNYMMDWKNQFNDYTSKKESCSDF

SMILES	SI: selectivity index, ratio IC50 (BuChE)/IC50 (AChE) (AChE [3])	Inhibition rate (%) (AChE [3]; [10])	IC50 (BuChE [4])	IC50 (AChE [3])	further results
CC(=O)SCC[N+](C)(C)C [acetylthiocholine iodide, Acetylthiocholine iodide, reference compound]					Km (AChE [1]; substrate): 163 µM
Cn1c2ccccc2c2cc[n+](-c3ccc(Br)cc3Br)cc21.[Br-] [Compound B33, 9-Methyl-2-(2,4-dibromophenyl)-β-carboline bromide]	278.2	96.7 ± 0.05 a %	30.6 ± 2.31 µM		IC50 [5]: > 20 µM; IC50 [6]: 10.6 µM
Nc1c2c(nc3cc(Cl)ccc13)C[C@H]1C=C(CCO)C[C@@H]2C1 [huprine W]					IC50 (AChE [7]; inhibitor co-crystallised with AChE (PDB 4BDT), reference not given, read-out: IC50 AChE): 0.0011 µM
Cn1c2ccccc2c2cc[n+](-c3ccc(F)cc3)cc21.[Br-] [Compound B4, 9-Methyl-2-(4-fluorophenyl)-β-carboline bromide]	35.3	84.3 ± 1.5 hi %	51.6 ± 2.43 µM	1.46 ± 0.12 µM	
Cn1c2ccccc2c2cc[n+](-c3cccc(O)c3)cc21.[Br-] [Compound B15, 9-Methyl-2-(3-hydroxyhenyl)-β-carboline bromide]	7.60	72.1 ± 1.8 l %	29.6 ± 2.48 µM	3.92 ± 0.3 µM	
Cn1c2c(c3ccccc31)CC[N+](c1ccc(I)cc1)=C2.[Br-] [Compound A13]	9.80	54.2 ± 3.2 ef %	53.8 ± 2.51 µM	5.5 ± 0.37 µM	
Cc1ccccc1-[n+]1ccc2c3ccccc3n(C)c2c1.[Br-] [Compound B20, 9-Methyl-2-(2-methylphenyl)-β-carboline bromide]	15.9	59.6 ± 3.2 n %	154 ± 9.1 µM	9.71 ± 0.55 µM	
Cn1c2c(c3ccccc31)CC[N+](c1ccc(O)cc1)=C2.[Br-] [Compound A16]	9.96	64.3 ± 0.3 cd %	28 ± 2.88 µM	2.81 ± 0.22 µM	
CCCn1c2c(c3ccccc31)CC[N+](c1ccccc1)=C2.[Br-] [Compound A39]	2.27	67.1 ± 2.4 c %	13 ± 0.62 µM	5.72 ± 0.66 µM	
Cc1ccc2c(c1)c1c(n2C)C=[N+](c2ccccc2)CC1.[Br-] [Compound A35]	3.98	70.3 ± 2.2 bc %	10.6 ± 0.58 µM	2.66 ± 0.37 µM	
Cn1c2ccccc2c2cc[n+](-c3cccc(Cl)c3)cc21.[Br-] [Compound B6, 9-Methyl-2-(3-chlorophenyl)-β-carboline bromide]	3.40	56.4 ± 2.5 no %	33.1 ± 1.07 µM	9.65 ± 0.78 µM	
Cn1c2c(c3ccccc31)CC[N+](c1cccc(O)c1)=C2.[Br-] [Compound A15]	1.63	51.8 ± 9.1 fg %	10 ± 0.59 µM	6.12 ± 0.61 µM	
Cn1c2c(c3ccc(F)cc31)CC[N+](c1ccccc1)=C2.[Br-] [Compound A36]	3.00	59.3 ± 2.1 de %	14.2 ± 0.44 µM	4.74 ± 0.9 µM	
COc1ccc2c(c1)c1c(n2C)C=[N+](c2ccccc2)CC1.[Br-] [Compound A34]	18.4	68.4 ± 2.8 c %	37.6 ± 2.84 µM	2.04 ± 0.33 µM	
CCCCn1c2c(c3ccccc31)CC[N+](c1ccccc1)=C2.[Br-] [Compound A42]	1.02	53.9 ± 1.5 ef %	10 ± 0.68 µM	9.79 ± 3.55 µM	
Cn1c2c(c3ccccc31)CC[N+](c1ccc(F)cc1)=C2.[Br-] [Compound A4]	4.22	49.3 ± 2.2 fgh %	59.5 ± 2.72 µM	14.1 ± 1.41 µM	
Cc1ccc(-[n+]2ccc3c4ccccc4n(C)c3c2)cc1.[Br-] [Compound B22, 9-Methyl-2-(4-methylphenyl)-β-carboline bromide]	111.6	95.2 ± 0.5 abc %	32.2 ± 1.65 µM		IC50 [5]: 18.1 µM; binding capacity with AChE relative to substrate ATCh (AChE [1]; Km of ATCh versus Ki): ~3835 fold; binding capacity with AChE relative to A22 (AChE [1]; ratio of Ki values): approximately 11 fold; Ki (AChE [1]): 0.0425 µM; mechanism of AChE inhibition (AChE [1]): competitive; IC50 [6]: 19.2 µM
COc1ccc([N+]2=Cc3c(c4ccccc4n3C)CC2)cc1.[Br-] [Compound A19]	46.9	66.1 ± 0.5 c %	137 ± 0.79 µM	2.92 ± 0.28 µM	
Cn1c2ccccc2c2cc[n+](-c3cccc(I)c3)cc21.[Br-] [Compound B12, 9-Methyl-2-(3-iodohenyl)-β-carboline bromide]	1.90	56.4 ± 5.9 no %	21.1 ± 0.46 µM	11.1 ± 1.34 µM	
Cc1ccc([N+]2=Cc3c(c4ccccc4n3C)CC2)cc1 [Compound A22]	55.2		80.1 ± 5.27 µM	1.45 ± 0.21 µM	inhibition at 10 µM (AChE [3]; test concentration of the compound 10 μM, read-out: Inhibition rate (%)): 77.6 ± 1.5%; IC50 at 48 h [8]: 5.18 µM; Ki (AChE [1]): 0.483 µM; mechanism of AChE inhibition (AChE [1]): competitive; IC50 at 48 h [9]: 2.13 µM
CC(C)n1c2c(c3ccccc31)CC[N+](c1ccccc1)=C2.[Br-] [Compound A40]	4.37	68.9 ± 5.1 bc %	16.3 ± 0.56 µM	3.73 ± 0.34 µM	
